Data on two compounds can be found in patent publication US6489481B1, “Method for treating neurological disorders” (AstraZeneca AB, priority 1998, dated 2002).

One assay has as its target T1, emopamil binding protein (Cavia porcellus, UniProt Q60490).
T1 construct: Guinea pig liver membranes: 40 mg/mL original wet weight; from tissue; host or cells: guinea pig liver membranes (male guinea pigs)
T1 sequence (Q60490 1-229): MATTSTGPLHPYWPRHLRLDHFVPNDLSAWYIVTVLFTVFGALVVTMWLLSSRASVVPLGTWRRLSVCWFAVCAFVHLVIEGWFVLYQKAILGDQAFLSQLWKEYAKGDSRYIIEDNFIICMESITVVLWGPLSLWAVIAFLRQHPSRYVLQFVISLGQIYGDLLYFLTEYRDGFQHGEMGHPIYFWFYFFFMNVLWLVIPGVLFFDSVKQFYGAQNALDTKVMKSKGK
The experiment in a line: Displacement of 3H-emopamil binding to guinea pig liver membranes. The following applies: 0.96 nM (-)-3H-emopamil. The protocol:
Displacement of ^3H-Emopamil Binding to Guinea Pig Liver Membranes
The method of displacement of ^3H-emopamil binding was a modification of Zech et al (1991) Eur. J. Pharm. 208:119-130.
The Guinea-pig liver membranes were prepared as follows: Male guinea pigs were sacrificed by CO2 asphyxiation with dry ice. The livers were quickly excised and weighed and rinsed in membrane preparation buffer containing 10 mM Hepes, 1 mM Tris base-EDTA, 250 mM sucrose, pH 7.4. The livers were then minced homogenized in 10 times volume with a motor driven Teflon-glass homogenizer with three strokes on ice. The homogenate was centrifuged at 1000×g in a SS34 rotor for 5 minutes at 4° C. The supernatant was filtered through 4 layers of gauze and then centrifuged at 8000×g for 10 minutes 4° C. This resulting supernatant was centrifuged at 40,000×g for 15 minutes at 4° C. The resulting pellet was resuspended in assay buffer and centrifuged again at 40,000×g for 15 minutes at 4° C. This pellet was resuspended in assay buffer (2.5 fold with respect to original wet weight) and homogenized with one stroke with the Teflon-glass homogenizer. Aliquots of 1 mL were stored at −70° C.
The displacement assay was performed as follows: The reaction mixture contained: Assay buffer: 10 mM Tris-HCl, 0.1 mM phenylmethylsulfonyl fluoride (PMSF), 0.2% bovine serum albumin (BSA), pH 7.4 at […]. […]

The next assay has as its system PC12 cells. As to the kind of experiment: Inhibition of apoptosis in PC12 cells induced by NGF withdrawal (Cell Death Detection ELISA). Type of assay: cell-based, rat. The method, then:
Inhibition of Apoptosis in PC12 Cells Induced by NGF Withdrawal
Rat PC12 cells (ATCC Accession Number CRL-1721) were grown in RPMI0-1640 buffer containing 10% heat-inactivated Fetal Bovine Serum (FBS) and 1% L-glutamine (Gibco). Cells were plated in 100 mm Collagen I Falcon plates (Becton Dickinson)at a density of ˜1×10^6-2×10^6 and passed every other day at 1:10 ratio (cells were trypsinized and centrifuged at 1000 rpm for 5 min. Cells were resuspended and plated at the density of 1-2×10^6 cells). Tamoxifen was dissolved in DMSO at a concentration of 10 mM. Subsequent dilutions were done in PC12 cell growth medium containing 1% FBS. […]
Cells were harvested at various time points after the NGF withdrawal procedure to determine the time course of cell death. […] Compounds were used at various concentrations and the extent of apoptosis that occurred in the presence of compounds was expressed as a percentage relative to control cultures that were exposed to vehicle only. […]
Cell death was measured using a Cell Death Detection ELISA (Boehringer-Mannheim Cat# 1774425) according to manufacturers instructions.The ELISA is a photometric enzyme-immunoassay which determines the amount of cytoplasmic histone-associated-DNA-fragments after induced cell death. […]

The next assay has as its system mouse cortical neurons. The experiment in a line: Inhibition of NMDA-induced death of mouse cortical neurons in primary cell culture (LDH). Type of assay: cell-based. The note with it: result in words; NMDA-induced neuronal death is the patent's necrosis model.

Structures are written as SMILES. Structures can show the parent of a compound that is named as a salt.

Description for mouse cortical neurons: Inhibition of NMDA-induced Death of Mouse Cortical Neurons in Primary Cell Culture
A glial feeder layer was prepared from post-natal day 1 or 2 mice. Cortices were dissected in a Ca^2+/Mg^2+-free balanced salt solution, minced, incubated in media stock (MS: GIBCO's MEM supplemented with bicarbonate, glucose, and glutamine) containing trypsin for 30 minutes at 37° C., and centrifuged at 1500 g for 5 minutes to produce a cell pellet. The pellet was re-suspended in plating media (MS supplemented with horse and fetal calf serum) and triturated with a glass pasteur pipette. Cells were plated in 24-well Falcon Primaria tissue culture dishes at a density of 0.5 hemispheres per plate. The dishes had been coated overnight with 10 mg/ml mouse laminin and 25 mg/ml poly-lysine, then washed three times with water. The glial feeder layer was maintained in a humidified atmosphere of 5% CO2/95% air at 37° C. for two weeks. […]
LDH activity was measured as follows: 50 ml of cell-culture media from each well was mixed with 200 ml 0.1 M KH2PO4 containing 30 mg NADH, in a 96-well microtitre plate. After 10 minutes at room temperature, 30 ml of 2.4 mM sodium pyruvate was added, and the absorbance of this solution at 340nm was immediately measured at 15 second intervals for approximately 6 minutes using a Molecular Devices Spectromax 250 plate-reader. […]

Take `CC/C(=C(/c1ccc(OCCN(C)C)cc1)c1ccc(OC(=O)C(C)(C)C)cc1)c1ccccc1` [Example 11, 2,2-dimethyl-, 4-[1-[4-[2-(dimethylamino)ethoxy]phenyl]-2-phenyl-1-butenyl]phenyl Propanoic acid ester, (E)-]: the IC50 on emopamil binding protein was found to be 75 nM. Moreover, the “percentage in the PC12 assay (extent of apoptosis relative to control)” value in the assay with PC12 cells (relative to vehicle-only control cultures, 100% = no inhibition of apoptosis, 0% = total inhibition) is recorded as 41%.
Consider `CC/C(=C(\c1ccccc1)c1ccc(OCCN(C)C)cc1)c1ccccc1` [tamoxifen citrate], for which the inhibition of apoptosis result in the assay with PC12 cells (result in words) was “inhibit both apoptosis and necrosis”. Further, the inhibition of necrosis result in the assay with mouse cortical neurons is “inhibit both apoptosis and necrosis”.

Usually IC50 stands for the midpoint of a concentration-inhibition curve. Lower therefore signals greater potency.
